{"source": "patent US10894087B2", "about": "“Multi-arm polymeric prodrug conjugates of cabazitaxel-based compounds” (Nektar Therapeutics, priority 2010, dated 2021)", "key": {"[1]": {"assay": "Maximum tolerated dose (MTD) study of PEGylated conjugates of cabazitaxel in athymic mice", "format": "in vivo, female athymic nu/nu mice", "details": "qw x 3, iv; for Treatment-Related Deaths: N=5", "method": "Purpose. This study was performed to determine appropriate doses of each compound for tumor xenograft studies. In those studies, it is desirable to administer the maximum dose of test compound that will not cause excessive loss of body weight. In general, loss of ˜15% of the initial body weight of the animal is typically the maximum desired.\nExperimental procedure. MTD for 4-arm-conjugated to cabazitaxel were determined in female athymic nu/nu mice using standard methods. Briefly, 8-12 week old mice were administered test compounds or cabazitaxel intravenously at one week intervals for a total of three doses per mouse (qw×3, iv) as shown in Tables 1 and 2. For all PEG-conjugated test compounds, the doses of both the conjugate and released cabazitaxel, calculated from the cabazitaxel content of the respective conjugate, are shown. […] PEG-cabazitaxel conjugates were prepared in D5W. […] Mice were observed daily for clinical signs and body weights were recorded on days 1-5 and then biweekly until the end of study. All procedures were conducted in compliance with IACUC requirements. […] For any group with two measurements of mean body weight loss of greater than 20%, dosing was stopped and recovery was allowed. Within a group with greater than 20% mean weight loss, individual animals greater than 30% body weight loss were euthanized. Compound dosing was terminated for any group in which mean weight loss exceeded 20% or >10% of animals died. Moribund animals were euthanized and all animals were euthanized at end of study (day 30).\nResults. The results for the study MTD “20K Conjugates” are summarized in Table 3 and FIG. 1 while the results for the MTD “30K and 40K Conjugates” study are summarized Table 4 and FIG. 2. […] It should be noted that this is not meant to be a definitive MTD, but is simply a guide to select an appropriate dose for conducting tumor xenograft studies using this administration route and schedule. Note too, that these MTD are given as cabazitaxel equivalents. The actual dose of each conjugate must be corrected for the wt % of cabazitaxel in that specific conjugate."}, "[2]": {"tested_on": "H460 non-small cell lung cancer (NSCLC) implants", "details": "for % TGD / Median TTE (Median Time to Endpoint) / TGD (tumor growth delay compared to vehicle) / CR (Number of Complete Regressions) / Deaths / PR (Number of Partial Regressions) / TFS (Number of Tumor Free Survivors) / MTV (Median Tumor Volume) / BW Nadir (d), day of nadir: iv; for % TGD / Median TTE (Median Time to Endpoint) / TGD (tumor growth delay compared to vehicle) / CR (Number of Complete Regressions) / Deaths / PR (Number of Partial Regressions) / TFS (Number of Tumor Free Survivors) / MTV (Median Tumor Volume): qwk x 3; for CR (Number of Complete Regressions) / Deaths / PR (Number of Partial Regressions) / TFS (Number of Tumor Free Survivors): N=10; for BW Nadir (d), day of nadir: mouse, in vivo", "method": "Purpose. Studies were conducted to assess the growth inhibitory effects of PEGylated-conjugates of cabazitaxel on H460 non-small cell lung cancer (NSCLC) implants in athymic nu/nu mice.\nExperimental plan. These studies were conducted using routine methods and materials that are familiar to those skilled in the art. Briefly, 8 to 12 week old female nu/nu mice were injected subcutaneously in the flank with 1×10^7 H460 tumor cells in 0.2 mL sterile buffer. […] Animals received three intravenous doses of test article at one week intervals beginning on day 1. Cabazitaxel solutions were prepared in D5W containing 5% Tween 80:10% ethanol. PEG-cabazitaxel conjugates were prepared in D5W. The administration volume for all test articles was 10 mL/kg. The test doses were selected to represent the MTD and ½ the MTD for each test compound. The tables list the actual mg/kg for each test article and the corresponding cabazitaxel equivalent calculated based on the weight-percent cabazitaxel content for each PEGylated conjugate.\nAnimals were weighed on days 1-5, 7, 9, 11, 13 then biweekly until the end of the study. Tumor sizes were measured using calipers biweekly throughout the study and tumor volumes were calculated using the formula for an ellipsoid sphere: L×W^2/2=mm^3, where L and W are the major axis dimensions of the tumor in mm. Additional parameters that were monitored were the number of non-specific deaths, number of partial and complete tumor regressions, number of tumor-free survivors, and the time required for individual animals' tumors to reach 2000 mm^3. The median time for a tumor to reach 2000 mm^3 in the treatment groups (T) and control group (C) was used to calculate of the overall delay in the growth of the median tumor (TGD). Animals were monitored individually until reaching the experimental endpoint: tumor size of 2000 mm^3 or 45 days, whichever came first. […] When the study endpoint was reached, the animals were euthanized."}, "[3]": {"details": "mainly by the CYP3A4/5 isozyme; cited from earlier work"}, "[4]": {"details": "MTD study 20K conjugates, 15 mg/kg cabazitaxel eq."}, "[5]": {"details": "MTD study 20K conjugates, 30 mg/kg cabazitaxel eq."}, "[6]": {"details": "20K conjugate xenograft study, 12.5 mg/kg cabazitaxel eq."}, "[7]": {"details": "20K conjugate xenograft study, 25 mg/kg cabazitaxel eq."}, "[8]": {"details": "MTD study 30K and 40K conjugates, 30 mg/kg cabazitaxel eq."}, "[9]": {"details": "20K conjugate xenograft study, 15 mg/kg cabazitaxel eq."}, "[10]": {"details": "20K conjugate xenograft study, 30 mg/kg cabazitaxel eq."}, "[11]": {"details": "30K and 40K conjugate xenograft study, 15 mg/kg cabazitaxel eq."}, "[12]": {"details": "30K and 40K conjugate xenograft study, 30 mg/kg cabazitaxel eq."}}, "note": "Read-outs that look alike come from different tables or passages of the source."}
{"molecule": "4-ARM-PEG20K-Butanoate-Linked Cabazitaxel Conjugate [4-arm-PEG20K-BA-Cabazitaxel]", "values": [{"measurement": "Treatment-Related Deaths", "setting": "[1]; MTD study 20K conjugates, 7.5 mg/kg cabazitaxel eq.", "value": 0}, {"measurement": "BW Nadir", "setting": "[1]; [4]", "value": "−1.3", "unit": "%"}, {"measurement": "BW Nadir (day)", "setting": "[1]; [4]", "value": 2, "unit": "days"}, {"measurement": "Treatment-Related Deaths", "setting": "[1]; [4]", "value": 0}, {"measurement": "BW Nadir", "setting": "[1]; [5]", "value": "−16.6", "unit": "%"}, {"measurement": "BW Nadir (day)", "setting": "[1]; [5]", "value": 20, "unit": "days"}, {"measurement": "Treatment-Related Deaths", "setting": "[1]; [5]", "value": 0}, {"measurement": "Estimated MTD, cabazitaxel equivalents", "setting": "[1]; athymic nu/nu mice, guide value, not a definitive MTD", "value": 25, "unit": "mg/kg"}, {"measurement": "Tumor growth inhibition compared with cabazitaxel and the other conjugates (in words)", "setting": "[2]; 20K conjugate xenograft study", "value": "did not provide greater tumor growth inhibition than either cabazitaxel or the other PEG-cabazitaxel conjugates tested in this study"}, {"measurement": "% TGD", "setting": "[2]; [6]", "value": 36, "unit": "%"}, {"measurement": "Median TTE (Median Time to Endpoint)", "setting": "[2]; [6]", "value": 25.3, "unit": "days"}, {"measurement": "TGD (tumor growth delay compared to vehicle)", "setting": "[2]; [6]", "value": 6.7, "unit": "days"}, {"measurement": "CR (Number of Complete Regressions)", "setting": "[2]; [6]", "value": 0}, {"measurement": "Deaths", "setting": "[2]; [6]", "value": 0}, {"measurement": "PR (Number of Partial Regressions)", "setting": "[2]; [6]", "value": 0}, {"measurement": "TFS (Number of Tumor Free Survivors)", "setting": "[2]; [6]", "value": 0}, {"measurement": "% TGD", "setting": "[2]; [7]", "value": 112, "unit": "%"}, {"measurement": "Median TTE (Median Time to Endpoint)", "setting": "[2]; [7]", "value": 39.3, "unit": "days"}, {"measurement": "TGD (tumor growth delay compared to vehicle)", "setting": "[2]; [7]", "value": 20.8, "unit": "days"}, {"measurement": "CR (Number of Complete Regressions)", "setting": "[2]; [7]", "value": 0}, {"measurement": "Deaths", "setting": "[2]; [7]", "value": 0}, {"measurement": "PR (Number of Partial Regressions)", "setting": "[2]; [7]", "value": 0}, {"measurement": "TFS (Number of Tumor Free Survivors)", "setting": "[2]; [7]", "value": 0}]}
{"molecule": "CO[C@H]1C(=O)[C@]2(C)[C@@H](OC)C[C@H]3OC[C@@]3(OC(C)=O)[C@H]2[C@H](OC(=O)c2ccccc2)[C@]2(O)C[C@H](OC(=O)[C@H](O)[C@@H](NC(=O)OC(C)(C)C)c3ccccc3)C(C)=C1C2(C)C", "note": "[Cabazitaxel, (2α,5β,7β,10β,13α-4-acetoxy-13-({(2R,3S)-3-[(tertbutoxycarbonyl)amino]-2-hydroxy-3-phenylpropanoyl}oxy)-1-hydroxy-7,10-dimethoxy-9-oxo-5,20-epoxytax-11-en-2-yl benzoate]", "values": [{"measurement": "BW Nadir", "setting": "[1]; [5]", "value": "−15.4", "unit": "%"}, {"measurement": "BW Nadir (day)", "setting": "[1]; [5]", "value": 20, "unit": "days"}, {"measurement": "Treatment-Related Deaths", "setting": "[1]; [5]", "value": 0}, {"measurement": "BW Nadir", "setting": "[1]; [8]", "value": "−6.8", "unit": "%"}, {"measurement": "BW Nadir (day)", "setting": "[1]; [8]", "value": 21, "unit": "days"}, {"measurement": "Treatment-Related Deaths", "setting": "[1]; [8]", "value": 0}, {"measurement": "% TGD", "setting": "[2]; [9]", "value": 52, "unit": "%"}, {"measurement": "MTV (Median Tumor Volume)", "setting": "[2]; [9]", "value": 1764, "unit": "mm^3"}, {"measurement": "Median TTE (Median Time to Endpoint)", "setting": "[2]; [9]", "value": 28.1, "unit": "days"}, {"measurement": "TGD (tumor growth delay compared to vehicle)", "setting": "[2]; [9]", "value": 9.6, "unit": "days"}, {"measurement": "CR (Number of Complete Regressions)", "setting": "[2]; [9]", "value": 0}, {"measurement": "Deaths", "setting": "[2]; [9]", "value": 0}, {"measurement": "PR (Number of Partial Regressions)", "setting": "[2]; [9]", "value": 0}, {"measurement": "TFS (Number of Tumor Free Survivors)", "setting": "[2]; [9]", "value": 0}, {"measurement": "% TGD", "setting": "[2]; [10]", "value": 154, "unit": "%"}, {"measurement": "MTV (Median Tumor Volume)", "setting": "[2]; [10]", "value": 918, "unit": "mm^3"}, {"measurement": "TGD (tumor growth delay compared to vehicle)", "setting": "[2]; [10]", "value": 28.5, "unit": "days"}, {"measurement": "CR (Number of Complete Regressions)", "setting": "[2]; [10]", "value": 0}, {"measurement": "Deaths", "setting": "[2]; [10]", "value": 0}, {"measurement": "PR (Number of Partial Regressions)", "setting": "[2]; [10]", "value": 3}, {"measurement": "TFS (Number of Tumor Free Survivors)", "setting": "[2]; [10]", "value": 0}, {"measurement": "% TGD", "setting": "[2]; [11]", "value": 87, "unit": "%"}, {"measurement": "Median TTE (Median Time to Endpoint)", "setting": "[2]; [11]", "value": 27.9, "unit": "days"}, {"measurement": "TGD (tumor growth delay compared to vehicle)", "setting": "[2]; [11]", "value": 13, "unit": "days"}, {"measurement": "CR (Number of Complete Regressions)", "setting": "[2]; [11]", "value": 0}, {"measurement": "Deaths", "setting": "[2]; [11]", "value": 0}, {"measurement": "PR (Number of Partial Regressions)", "setting": "[2]; [11]", "value": 0}, {"measurement": "TFS (Number of Tumor Free Survivors)", "setting": "[2]; [11]", "value": 0}, {"measurement": "% TGD", "setting": "[2]; [12]", "value": 208, "unit": "%"}, {"measurement": "MTV (Median Tumor Volume)", "setting": "[2]; [12]", "value": 994, "unit": "mm^3"}, {"measurement": "TGD (tumor growth delay compared to vehicle)", "setting": "[2]; [12]", "value": 31.1, "unit": "days"}, {"measurement": "CR (Number of Complete Regressions)", "setting": "[2]; [12]", "value": 0}, {"measurement": "Deaths", "setting": "[2]; [12]", "value": 0}, {"measurement": "PR (Number of Partial Regressions)", "setting": "[2]; [12]", "value": 5}, {"measurement": "TFS (Number of Tumor Free Survivors)", "setting": "[2]; [12]", "value": 0}, {"measurement": "BW Nadir (d), day of nadir", "setting": "[2]; 15 mg/kg", "value": "(22) d"}, {"measurement": "BW Nadir (d), day of nadir", "setting": "[2]; 30 mg/kg", "value": "(22) d"}, {"measurement": "Extent metabolized in the liver", "setting": "[3]", "value": "> 95", "unit": "%"}]}
